Results as given in patent publication US20260191962A1, “NOVEL CHLORIN E6 ANALOGUES” (RMW CHO Group Limited, priority 2022, published 2026).
Where a name gives a salt, the structure may show the parent alone. Read-outs that look alike come from different tables or passages of the source.

Assays:
[1] = test system: SKOV3 ovarian cancer cells; assay: Phototoxicity of chlorin e6 analogues in SKOV3 cells after 652 nm laser activation (AlamarBlue viability); format: cell-based, Human; conditions: for IC90: 24 h uptake, 652 nm laser 50 mW/cm^2 for 5 mins (15 J/cm^2), viability 24 h later; for Phototoxicity in vitro compared with compounds 1, 2 and 8: comparison in words
Description: Samples were stored at 4° C. protected from light.
All data are shown as mean±SD (where appropriate).
To test for phototoxicity, cells incubated with chlorin e6 analogues (0-10 μM in DMSO) had culture media replaced after 24 hours (as above) and were then exposed to a 652 nm laser (Invion) with laser density at 50 mW/cm^2 for 5 mins (total 15 J/cm^2). Following activation, cells were cultured for a further 24 hours. Media was then replaced with fresh media containing AlamarBlue, and % viable cells remaining assessed as above. Controls included cells treated with chlorin e6 analogues but not activated by laser light; cells without chlorin e6 analogue treatment but with laser light; and untreated controls. All measurements were made in quadruplicate.
To evaluate the therapeutic potential of chlorin e6 analogues, the therapeutic index (TI) was calculated. TI provides a quantitative measurement to describe relative drug safety, by comparing the drug concentration required for desirable effects versus the concentration resulting in undesirable off-target toxicity. TI was calculated using phototoxicity IC90 vs dark toxicity IC10.

[2] = test system: SKOV3 ovarian cancer cells; assay: Inherent cytotoxicity (dark toxicity) in SKOV3 cells (AlamarBlue viability); conditions: 24 h incubation, no light activation
Description: (§1) Photosensitizers (e.g. chlorin e6 analogue, chlorin e4 disodium (provided by Advanced Molecular Technologies, Scoresby) or Talaporfin sodium (purchased from Focus Bioscience cat #HY-16477-5MG)) were resuspended in 100% dimethylsulfoxide (DMSO) at a concentration of 5.5 mM. Samples were stored at 4° C. protected from light.
(§2) For in vitro experiments, photosensitizers (stock solution 5.5 mM in 100% DMSO) were diluted 1:100 in concentrated excipient solution (final 55 M photosensitizer in 10% w/v Kollidon-12, 42.4% w/v polysorbate 80, 0.6% w/v citric acid anhydrous, 40% w/v ethanol, 1.0% DMSO). Serial dilutions were prepared in cell culture media (Dulbecco's Modified Eagle Medium/Nutrient Mixture F-12 (DMEM/F-12)) supplemented with 10% v/v Fetal Bovine Serum, 100 U/mL penicillin, 100 μg/mL streptomycin and the same excipient solution at a constant 1:55 dilution.
(§3) Human ovarian cancer cell line SKOV3 (ATCC #HTB-77) was maintained in Dulbecco's Modified Eagle Medium/Nutrient Mixture F-12 (DMEM/F-12), supplemented with 10% v/v Fetal Bovine Serum, 100 U/mL penicillin and 100 g/mL streptomycin. Monolayer cultures were grown in a humidified incubator at 37° C. with 5% CO2. Once cells had reached ~80% confluence, spent media was replaced with media containing photosensitizer at the required concentration and cells were incubated for the desired period of time to allow photosensitizer uptake.
(§4) Spectral absorbance and viability measurements were normalized in the range 0-100%, with a minimum of 0 and a maximum value determined from the dataset. Dose response was determined using a sigmoidal four-point non-linear regression with variable slope, and IC10 or IC90 calculated for each compound. All data are shown as mean±SD (where appropriate).
(§5) SKOV3 cells were seeded in 96-well black wall plates (Greiner #655090) at a cell density of 5000 cells in 100 μl culture medium per well. On reaching 60% confluence, media was aspirated and replaced with fresh media containing the relevant chlorin e6 analogue from 0-100 μM in DMSO. Cells were incubated for a further 24 hours, allowing uptake of chlorin e6 analogues.
(§6) To test for inherent cytotoxicity (i.e. “dark toxicity”) of the chlorin e6 analogues, the culture media was replaced after 24 hours with fresh media containing 10% (v/v) AlamarBlue Cell Viability Reagent (ThermoFisher) and cells incubated at 37° C. for 6 hours. Untreated cells were used as a control. Fluorescence (Ex 555 nm/Em 596 nm) was measured using a Cytation 3 Cell Imaging Multi-Mode Reader (Biotek), and cytotoxicity assessed according to the % viable cells remaining. All measurements were made in quadruplicate.
(§7) The phototoxicity and inherent cytotoxicity (i.e. “dark toxicity”) of chlorin e6 analogues were assessed as previously using SKOV3 ovarian cancer cells.

[3] = test system: SKOV3 ovarian cancer cells; conditions: human, 24 h
Description: as §1, §2, §3, §4, §5, §6, §7

[4] = Stability of chlorin e6 analogue salts in aqueous solution (HPLC purity over time); format: physicochemical; conditions: 30° C.; for Stability: aqueous solution, overall rating in words
Description: Reaction solutions were prepared by dissolving 2-3 mg of the respective chlorin e6 analogue salt in 5 mL of distilled deionised water in a 50 mL test tube fitted with a lid. The solutions were stirred in the test tubes at 30° C. Air (oxygen) and ambient light so were not excluded. Sample HPLC analyses were performed at 0.5, 4 or 66 hours (unless indicated otherwise). The aim was to look for degradation over time.
• Mobile Phase: A=0.05% w/v phosphoric acid in distilled water; B=acetonitrile • Injection volume: 5 μL • HPLC run length: 35 minutes • Detection wavelength: 406 nm • Column temperature: 40° C.

[5] = Homo sapiens, SK-OV-3, light or radiation study
[6] = distilled deionised water, air and ambient light not excluded
[7] = distilled deionised water, air and ambient light not excluded, Disodium Salt

| Stability [4] | Purity by HPLC after 0.5 hours (%) [4, 6] | Purity by HPLC after 4 hours (%) [4, 6] | Purity by HPLC after 66 hours (%) [4, 6] | SMILES | further results |
| --- | --- | --- | --- | --- | --- |
|  |  |  |  | C=Cc1c(C)c2cc3nc(c(C)c4[nH]c(cc5nc(cc1[nH]2)C(C)=C5CC)c(C)c4C(=O)O)[C@@H](CCC(=O)O)[C@@H]3C [Chlorin e4 disodium, reference compound] | IC90 [1]: 21.3 µM; Phototoxicity in vitro compared with compounds 1, 2 and 8 [1]: substantially lower phototoxicity; Dark toxicity μM (IC10) [2]: 40.23 µM |
|  |  |  |  | C=Cc1c(C)c2cc3nc(c(CC(=O)O)c4[nH]c(cc5nc(cc1[nH]2)C(C)=C5CC)c(C)c4C(=O)NCCCS[C@@H]1O[C@H](CO)[C@@H](O)[C@H](O)[C@H]1O)[C@@H](CCC(=O)NCCCS[C@@H]1O[C@H](CO)[C@@H](O)[C@H](O)[C@H]1O)[C@@H]3C [Compound 1, chlorin e6 bis β-D-1-thioglucose propylamide conjugate 1] | Dark toxicity μM (IC10) [3]: 168.10 µM; IC90 [1, 5]: 6.48 µM |
|  |  |  |  | C=Cc1c(C)c2cc3nc(c(CC(=O)NCCCS[C@@H]4O[C@H](CO)[C@@H](O)[C@H](O)[C@H]4O)c4[nH]c(cc5nc(cc1[nH]2)C(C)=C5CC)c(C)c4C(=O)NCCCS[C@@H]1O[C@H](CO)[C@@H](O)[C@H](O)[C@H]1O)[C@@H](CCC(=O)NCCCS[C@@H]1O[C@H](CO)[C@@H](O)[C@H](O)[C@H]1O)[C@@H]3C [Compound 2, chlorin e6 tris β-D-1-thioglucose propylamide conjugate 2] | Dark toxicity μM (IC10) [3]: 167.50 µM; IC90 [1, 5]: 7.89 µM |
|  |  |  |  | C=Cc1c(C)c2cc3nc(c(CC(=O)N(C)CCC[P+](c4ccccc4)(c4ccccc4)c4ccccc4)c4[nH]c(cc5nc(cc1[nH]2)C(C)=C5CC)c(C)c4C(=O)OC)[C@@H](CCC(=O)OC)[C@@H]3C [Compound 8, Chlorin e6 N-(methylaminopropyl)triphenylphosphonium Bromide Dimethyl Ester] | Dark toxicity μM (IC10) [3]: 1.032 µM; IC90 [1, 5]: 0.00418 µM |
| Good | 94.15% | 93.94% |  | C=Cc1c(C)c2cc3nc(c(CC(=O)N(C)CCCC)c4[nH]c(cc5nc(cc1[nH]2)C(C)=C5CC)c(C)c4C(=O)O)[C@@H](CCC(=O)O)[C@@H]3C [Compound 11, Chlorin e6 N-methylbutylamine bis(N-methyl-D-glucamine) Salt] | Purity by HPLC (%) after 7 days ([4]; distilled deionised water, air and ambient light not excluded, after 7 days): 93.93 (after % |
| Poor | 83.73% | 81.10% | 36.95% | C=Cc1c(C)c2cc3nc(c(CC(=O)O)c4[nH]c(cc5nc(cc1[nH]2)C(C)=C5CC)c(C)c4C(=O)OC)[C@@H](CCC(=O)O)[C@@H]3C [Compound 12, Chlorin e6 5-methyl Ester Monosodium Mono(N-methyl-D-glucamine) Salt] |  |
| Poor |  |  |  | C=Cc1c(C)c2cc3nc(c(CC(=O)O)c4[nH]c(cc5nc(cc1[nH]2)C(C)=C5CC)c(C)c4C(=O)OC)[C@@H](CCC(=O)O)[C@@H]3C [Compound 13, Chlorin e6 5-methyl Ester Disodium Salt] | Purity by HPLC after 0.5 hours (%) [4, 7]: 85.46%; Purity by HPLC after 4 hours (%) [4, 7]: 81.54%; Purity by HPLC after 66 hours (%) [4, 7]: 41.60% |
| Good |  |  | 95.34% | C=Cc1c(C)c2cc3nc(c(CC(=O)OCC)c4[nH]c(cc5nc(cc1[nH]2)C(C)=C5CC)c(C)c4C(=O)O)[C@@H](CCC(=O)O)[C@@H]3C [Compound 16, Chlorin e6 15-ethyl Ester bis(N-methyl-D-glucamine) Salt] |  |
|  |  |  |  | C=Cc1c(C)c2cc3nc(c(CC(=O)OCC)c4[nH]c(cc5nc(cc1[nH]2)C(C)=C5CC)c(C)c4C(=O)O)[C@@H](CCC(=O)O)[C@@H]3C [Compound 17, Chlorin e6 15-ethyl Ester Disodium Salt] | Purity by HPLC after 66 hours (%) [4, 7]: 76.69%; Purity by HPLC (%) after 2 hours ([4]; distilled deionised water, air and ambient light not excluded, after 2 hours): 77.60 (after % |
| Poor | 81.39% | 81.28% | 1.62% | C=Cc1c(C)c2cc3nc(c(CC(=O)O)c4[nH]c(cc5nc(cc1[nH]2)C(C)=C5CC)c(C)c4C(=O)OC)[C@@H](CCC(=O)O)[C@@H]3C [Compound 20, Chlorin e6 5-methyl Ester bis(N-methyl-D-glucamine) Salt] |  |
| Poor | 88.56% | 84.33% | 40.27% | C=Cc1c(C)c2cc3nc(c(CC(=O)O)c4[nH]c(cc5nc(cc1[nH]2)C(C)=C5CC)c(C)c4C(=O)O)[C@@H](CCC(=O)O)[C@@H]3C [Photodithiazine, reference compound] |  |
|  |  |  |  | C=Cc1c(C)c2cc3nc(c(CC(=O)N[C@@H](CC(=O)O)C(=O)O)c4[nH]c(cc5nc(cc1[nH]2)C(C)=C5CC)c(C)c4C(=O)O)[C@@H](CCC(=O)O)[C@@H]3C [Talaporfin sodium, reference compound] | Phototoxicity in vitro compared with compounds 1, 2 and 8 [1]: substantially lower phototoxicity; Dark toxicity μM (IC10) [2]: 11.10 µM |
